Structures can show the parent of a compound that is named as a salt.
What was measured:
[1] = molecular target: T1, proMMP9(67-444;ΔFnII) (SEQ ID NO:5) (Homo sapiens, UniProt P14780, DEL216-390); experiment: ThermoFluor binding assay with proMMP9(67-444;ΔFnII)
T1 construct: start methionine (N); made in house; host or cells: E. coli BL21(DE3) RIL
T1 sequence (P14780 with tags, fused parts or gaps DEL216-390): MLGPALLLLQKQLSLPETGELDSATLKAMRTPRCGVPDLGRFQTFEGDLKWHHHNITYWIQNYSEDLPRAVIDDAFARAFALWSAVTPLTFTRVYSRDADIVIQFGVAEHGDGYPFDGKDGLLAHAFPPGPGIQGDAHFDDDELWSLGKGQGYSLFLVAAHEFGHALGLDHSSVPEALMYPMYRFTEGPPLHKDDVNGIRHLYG
How it was run: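 Thermal shift of 3.5 μM proMMP9(67-444;ΔFnII), desalted beforehand, with 50 μM 1,8-ANS in 50 mM HEPES pH 7.0, 100 mM NaCl, 2.5 mM MgCl2, 300 μM CaCl2, 0.001% Tween-20. Heated 40–90 °C at 1 °C/min, fluorescence read at 500 nm; binding fitted from Tm shifts using DSC- and ThermoFluor-derived unfolding parameters.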

[2] = molecular target: T2, full-length proMMP9(1-707) activation by catalytic MMP3 (Homo sapiens, UniProt P14780, R574P); experiment: proMMP9/MMP3 P126 Activation Assay; type: biochemical
T2 construct: made in house; host or cells: proMMP9: HEK293 (secreted); MMP3: E. coli
Experimental: proMMP9/MMP3 P126 Activation Assay
The reaction volume was 50 μL. […] Reactivity of residual MMP3 towards P-126 substrate was minimal under these conditions.

[3] = molecular target: T3, proMMP9(20-445;ΔFnII) (SEQ ID NO:6) (Homo sapiens, UniProt P14780, DEL216-390); experiment: ThermoFluor binding assay with proMMP9(20-445;ΔFnII)
T3 construct: start methionine (N); made in house; host or cells: E. coli BL21(DE3) RIL
T3 sequence (P14780 with tags, fused parts or gaps DEL216-390): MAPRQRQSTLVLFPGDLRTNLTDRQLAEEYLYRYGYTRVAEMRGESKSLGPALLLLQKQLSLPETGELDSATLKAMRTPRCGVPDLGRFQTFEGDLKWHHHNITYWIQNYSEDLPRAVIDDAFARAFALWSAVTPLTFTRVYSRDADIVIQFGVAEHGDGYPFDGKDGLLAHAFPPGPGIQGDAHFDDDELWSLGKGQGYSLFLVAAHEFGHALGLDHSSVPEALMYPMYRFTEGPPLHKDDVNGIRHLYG
How it was run: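 Protein thermal stability was measured with 2.8 μM proMMP9(20-445;ΔFnII) and 50 μM 1,8-ANS in 50 mM HEPES pH 7.0, 100 mM NaCl, 0.001% Tween-20, 2.5 mM MgCl2, 300 μM CaCl2, across serial compound dilutions. Samples were heated 40–90° C at 1° C/min with fluorescence read at 500 nm. Tm was fitted, and binding was derived from thermodynamic parameters obtained by DSC and ThermoFluor.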

T2 sequence (P14780 20-707 R574P): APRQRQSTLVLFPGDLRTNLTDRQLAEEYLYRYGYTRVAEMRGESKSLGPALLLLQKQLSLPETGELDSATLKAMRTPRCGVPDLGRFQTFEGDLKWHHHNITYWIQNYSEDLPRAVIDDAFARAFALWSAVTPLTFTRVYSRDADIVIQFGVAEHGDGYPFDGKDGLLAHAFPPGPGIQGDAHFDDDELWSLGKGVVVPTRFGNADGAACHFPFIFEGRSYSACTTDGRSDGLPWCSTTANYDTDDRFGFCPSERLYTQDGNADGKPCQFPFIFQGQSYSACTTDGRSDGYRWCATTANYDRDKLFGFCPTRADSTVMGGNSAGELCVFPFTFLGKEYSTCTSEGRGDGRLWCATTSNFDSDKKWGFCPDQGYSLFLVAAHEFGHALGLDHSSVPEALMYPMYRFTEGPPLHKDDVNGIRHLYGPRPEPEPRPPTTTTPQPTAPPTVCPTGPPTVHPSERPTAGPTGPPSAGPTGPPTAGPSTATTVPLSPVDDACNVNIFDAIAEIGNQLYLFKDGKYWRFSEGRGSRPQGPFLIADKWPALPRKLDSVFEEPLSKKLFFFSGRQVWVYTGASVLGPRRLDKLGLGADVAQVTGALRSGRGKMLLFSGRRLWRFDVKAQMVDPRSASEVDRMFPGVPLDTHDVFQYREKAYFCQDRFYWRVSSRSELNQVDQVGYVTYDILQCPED

Row | SMILES | Kd [1] | IC50 [2] | Kd [3]
1 | COc1ccc(S(C)(=O)=O)cc1Nc1nc2c(ccc3ncn(C)c32)s1 [Example 135, (5-Methanesulfonyl-2-methoxy-phenyl)-(8-methyl-8H-imidazo[4′,5′:3,4]benzo[2,1-d]thiazol-2-yl)-amine.TFA] | 640 nM | 270 nM | > 95000 nM
2 | Cc1nc2ccc3sc(Nc4cc(S(N)(=O)=O)ccc4OC(C)C)nc3c2n1CC(F)(F)F [Example 136, 4-Isopropoxy-3-[7-methyl-8-(2,2,2-trifluoro-ethyl)-8H-imidazo[4′,5′:3,4]benzo[2,1-d]thiazol-2-ylamino]-benzenesulfonamide.TFA] | 590 nM | 1100 nM | 770 nM
3 | CC(C)Oc1ccc(S(N)(=O)=O)cc1Nc1nc2c(ccc3ncn(CC(F)(F)F)c32)s1 [Example 137, 4-Isopropoxy-3-[8-(2,2,2-trifluoro-ethyl)-8H-imidazo[4′,5′:3,4]-benzo[2,1-d]thiazol-2-ylamino]-benzenesulfonamide.TFA] | 630 nM | 1100 nM | 440 nM
4 | COc1ccc(S(C)(=O)=O)cc1Nc1nc2c(ccc3nc(C)n(CC(F)(F)F)c32)s1 [Example 138, (5-Methanesulfonyl-2-methoxy-phenyl)-[7-methyl-8-(2,2,2-trifluoro-ethyl)-8H-imidazo[4′,5′:3,4]benzo[2,1-d]thiazol-2-yl]-amine.TFA] | 480 nM | 560 nM | 690 nM
5 | CCn1c(C)nc2ccc3sc(Nc4cc(F)ccc4OC(C)C)nc3c21 [Example 139, (8-Ethyl-7-methyl-8H-imidazo[4′,5′:3,4]benzo[2,1-d]thiazol-2-yl)-(5-fluoro-2-isopropoxy-phenyl)-amine.TFA] | 960 nM | 330 nM | > 95000 nM
6 | Cc1nc2ccc3sc(Nc4cc(F)ccc4OC(C)C)nc3c2n1C [Example 140, (7,8-Dimethyl-8H-imidazo[4′,5′:3,4]benzo[2,1-d]thiazol-2-yl)-(5-fluoro-2-isopropoxy-phenyl)-amine.TFA] | 810 nM | 410 nM | > 95000 nM
7 | Cc1nc2ccc3sc(Nc4cc(F)ccc4OC(C)C)nc3c2n1CC(F)(F)F [Example 141, (5-Fluoro-2-isopropoxy-phenyl)-[7-methyl-8-(2,2,2-trifluoro-ethyl)-8H-imidazo[4′,5′:3,4]benzo[2,1-d]thiazol-2-yl]-amine.TFA] | 7500 nM | 1300 nM | 33000 nM
8 | CC(C)Oc1ccc(F)cc1Nc1nc2c(ccc3ncn(CC(F)(F)F)c32)s1 [Example 142, (5-Fluoro-2-isopropoxy-phenyl)-[8-(2,2,2-trifluoro-ethyl)-8H-imidazo[4′,5′:3,4]-benzo[2,1-d]thiazol-2-yl]-amine.TFA] | 2400 nM | 1800 nM | > 95000 nM
9 | CCn1c(C)nc2ccc3sc(Nc4cc(S(C)(=O)=O)ccc4OC(C)C)nc3c21 [Example 143, (8-Ethyl-7-methyl-8H-imidazo[4′,5′:3,4]benzo[2,1-d]thiazol-2-yl)-(2-isopropoxy-5-methanesulfonyl-phenyl)-amine.TFA] | 260 nM | 160 nM | 1200 nM
10 | Cc1nc2ccc3sc(Nc4cc(S(C)(=O)=O)ccc4OC(C)C)nc3c2n1C [Example 144, (7,8-Dimethyl-8H-imidazo[4′,5′:3,4]benzo[2,1-d]thiazol-2-yl)-(2-isopropoxy-5-methanesulfonyl-phenyl)-amine.TFA] | 660 nM | 260 nM | 880 nM
11 | Cc1nc2ccc3sc(Nc4cc(S(C)(=O)=O)ccc4OC(C)C)nc3c2n1CC(F)(F)F [Example 145, (2-Isopropoxy-5-methanesulfonyl-phenyl)-[7-methyl-8-(2,2,2-trifluoro-ethyl)-8H-imidazo[4′,5′:3,4]benzo[2,1-d]thiazol-2-yl]-amine.TFA] | 560 nM | 390 nM | 2500 nM
12 | CC(C)Oc1ccc(S(C)(=O)=O)cc1Nc1nc2c(ccc3ncn(CC(F)(F)F)c32)s1 [Example 146, (2-Isopropoxy-5-methanesulfonyl-phenyl)-[8-(2,2,2-trifluoro-ethyl)-8H-imidazo[4′,5′:3,4]-benzo[2,1-d]thiazol-2-yl]-amine.TFA] | 640 nM | 800 nM | 3100 nM
13 | CC(C)Oc1ccc(S(C)(=O)=O)cc1Nc1nc2c(ccc3c2ncn3C)s1 [Example 147, (2-Isopropoxy-5-methanesulfonyl-phenyl)-(6-methyl-6H-imidazo[4′,5′:3,4]benzo[2,1-d]thiazol-2-yl)-amine.TFA] | 400 nM | 220 nM | 1400 nM
14 | COc1ccncc1Nc1nc2c(ccc3nc(C)n(CC(F)(F)F)c32)s1 [Example 148, (4-Methoxy-pyridin-3-yl)-[7-methyl-8-(2,2,2-trifluoro-ethyl)-8H-imidazo[4′,5′:3,4]benzo[2,1-d]thiazol-2-yl]-amine.TFA] | 290 nM | 220 nM | 860 nM
15 | COc1ccncc1Nc1nc2c(ccc3c2ncn3C)s1 [Example 149, (4-Methoxy-pyridin-3-yl)-(6-methyl-6H-imidazo[4′,5′:3,4]benzo[2,1-d]thiazol-2-yl)-amine.TFA] | 39 nM | 110 nM | 1000 nM
16 | COc1ccc(S(C)(=O)=O)cc1Nc1nc2c(ccc3cnn(C)c32)s1 [Example 150, (5-Methanesulfonyl-2-methoxy-phenyl)-(1-methyl-1H-6-thia-1,2,8-triaza-as-indacen-7-yl)-amine.TFA] | 1200 nM | 340 nM | 8800 nM
17 | COc1ccncc1Nc1nc2c(ccc3ncn(CC(F)(F)F)c32)s1 [Example 153, N-(4-Methoxypyridin-3-yl)-8-(2,2,2-trifluoroethyl)-8H-imidazo[4′,5′:5,6]-benzo[1,2-d]thiazol-2-amine] | 600 nM | 650 nM | 1400 nM
18 | COc1ccncc1Nc1nc2c(ccc3nc(C)n(C)c32)s1 [Example 154, N-(4-Methoxypyridin-3-yl)-7,8-dimethyl-8H-imidazo[4′,5′:5,6]benzo[1,2-d]thiazol-2-amine.TFA] | 1100 nM | 630 nM | 6600 nM
19 | CCOc1ccncc1Nc1nc2c(ccc3nc(C)n(CC)c32)s1 [Example 155, N-(4-Ethoxypyridin-3-yl)-8-ethyl-7-methyl-8H-imidazo[4′,5′:5,6]benzo[1,2-d]thiazol-2-amine.TFA] | 140 nM | 150 nM | 720 nM
20 | CCOc1ccncc1Nc1nc2c(ccc3c2ncn3C)s1 [Example 156, N-(4-Ethoxypyridin-3-yl)-6-methyl-6H-imidazo[4′,5′:5,6]benzo[1,2-d]thiazol-2-amine.HCl] | 40 nM | 100 nM | 650 nM
21 | CC(C)Oc1ccncc1Nc1nc2c(ccc3c2ncn3C)s1 [Example 157, N-(4-Isopropoxypyridin-3-yl)-6-methyl-6H-imidazo[4′,5′:5,6]benzo[1,2-d]thiazol-2-amine.HCl] | 18 nM | 42 nM | 350 nM
22 | Cc1nc2c3nc(Nc4cnccc4OC(C)C)sc3ccc2n1C [Example 158, N-(4-Isopropoxypyridin-3-yl)-6,7-dimethyl-6H-imidazo[4′,5′:5,6]benzo[1,2-d]thiazol-2-amine.HCl] | 14 nM | 64 nM | 260 nM
23 | CCn1c(C)nc2ccc3sc(Nc4cnccc4OC(C)C)nc3c21 [Example 159, 8-Ethyl-N-(4-isopropoxypyridin-3-yl)-7-methyl-8H-imidazo[4′,5′:5,6]benzo[1,2-d]thiazol-2-amine.HCl] | 43 nM | 66 nM | 380 nM
24 | CC(C)Oc1ccc(C#N)cc1Nc1nc2c(ccc3c2ncn3C)s1 [Example 160, 4-isopropoxy-3-((6-methyl-6H-imidazo[4′,5′:5,6]benzo[1,2-d]thiazol-2-yl)amino)benzonitrile.HCl] | 75 nM | 160 nM | 290 nM
25 | Cn1cnc2c3nc(Nc4cc(C#N)ccc4OC(F)(F)F)sc3ccc21 [Example 164] | 110 nM | 180 nM | 360 nM
